Where two headings read alike, the source gives them in different places. No end group written: not given here.

One test has as its target T1, hPTH-2 Receptor (Homo sapiens, UniProt P49190).
T1 construct: expressed in transfected cells; host or cells: LLC-PK1 porcine kidney cells (clone given as hPR2-20, hPR2-22, LLC-P2R-22 or P2R-22)
The test is described as follows: cAMP stimulation in LLC-P2R-22 cells (LLC-PK1 stably transfected with hPTH-2 receptor). In kind it is cell-based. To be noted: for Emax / EC50 Log M: LLC-P2R-22 cells (hPTH-2 Receptor). The text has this: Stably transfected derivatives of the porcine kidney cell line LLC-PK1, HKRK-B7 (Takasu, H., et al., J. Bone Miner. Res. 14:11-20 (1999)) and hPR2-20, express the human PTH-1 and human PTH-2 receptors respectively. The HKRK-B7 LLC-PK1 cell line expresses the hPTH-1 receptor at ˜1×10^6 receptors/cell (Takasu, H., et al., J. Bone Miner. Res. 14:11-20 (1999)), and the hPR2-22 LLC-PK1 cell line expresses the hPTH-2 receptor at ˜0.8×10^6 receptors/cell (provided by H. Takasu and F. R. Bringhurst, Endocrine Unit, Massachusetts General Hospital).
(§1) Stimulation of cells with peptide analogs was performed in 24-well plates. Cells were rinsed with 0.5 mL of binding buffer and treated with 200 μL of cAMP assay buffer (Dulbecco's modified Eagle's medium containing 2 mM 3-isobutyl-1-methylxanthine, 1 mg/mL bovine serum albumin, 35 mM Hepes-NaOH, pH 7.4) and 100 μL of binding buffer containing varying amounts of peptide analog (final volume=300 μL). The medium was removed after incubation for 1 h at room temperature, and the cells were frozen (−80° C.), lysed with 0.5 mL 50 mM HCl, and refrozen (−80° C.). The cAMP content of the diluted lysate was determined by radioimmunoassay. Where possible, cAMP EC50 and Maximum response values were determined using nonlinear regression (see below).
Intracellular cAMP accumulation may be measured as described by Abou-Samra et al., J. Biol. Chem. 262:1129, 1986) or other methods known to those of skill in the art. Intracellular cAMP is extracted by thawing the cells in 1 ml of 50 mM HCl and analyzed by a specific radioimmunoassay using an anti-cAMP antibody (e.g., Sigma, St. Louis, Mo.). A cAMP analog (2′-O-monosuccinyl-adenosine 3′:5′-cyclic monophosphate tyrosyl methyl ester, obtained from Sigma) which is used as a tracer for cAMP is iodinated by the chloramine T method. Free iodine is removed by adsorbing the iodinated cAMP analog onto a C18 Sep-pak cartridge (Waters, Milford, Mass.). After washing with dH2O, the iodinated cAMP analog is eluted from the Sep-pak Cartridge with 40% acetonitrille (ACN) and 0.1% trifluoroacetic acid (TFA). The iodinated cAMP analog is lyophilized, reconstituted in 1 ml 0.1% TFA, and injected into a C18 reverse phase HPLC column (Waters). The column is equilibrated with 10% ACN in 0.1% TFA, and eluted with gradient of 10-30% ACN in 0.1% TFA. This allows separation of the mono-iodinated cAMP analog from the non-iodinated cAMP analog. The tracer is stable for up to 4 months when stored at −20° C. The standard used for the assay, adenosine 3′:5′-cyclic monophosphate, is purchased from Sigma. Samples (1-10 µl of HCl extracts) or standards (0.04-100 fmol/tube) are diluted in 50 mM Na-acetate (pH 5.5), and acetylated with 10 μl of mixture of triethylamine and acetic anhydride (2:1 vol:vol). After acetylation, cAMP antiserum (100 μl) is added from a stock solution (1:4000) made in PBS (pH 7.4), 5 mM EDTA and 1% normal rabbit serum. The tracer is diluted in PBS (pH 7.4) with 0.1% BSA, and added (20,000 cpm/tube). The assay is incubated at 4° C. overnight. The bound tracer is precipitated by adding 100 μl of goat anti-rabbit antiserum (1:20 in PBS) and 1 ml of 7% polyethyleneglycol (MW 5000-6000), centrifuging at 2000 rpm for 30 min. at 4° C. The supernatant is removed and the bound radioactivity is counted in a gamma-counter (Micromedic). To compute the cAMP data, logit calculations were performed in Excel spreadsheets. Typically, the assay sensitivity is 0.1 fmol/tube, and the standard concentration that displaces 50% of tracer is 5 fmol/tube.
All calculations were performed using Microsoft Excel. Nonlinear regression analysis of cAMP stimulation data was performed using parameters, defined as the Minimum, Maximum, Emax, midpoint (EC50), and slope of the response curve. The predicted response (yp) for a given dose (x) of peptide was calculated using the following equation: yp=Min+[(Max−Min)/(1+(EC50/x)^slope)]. […]

A further test addresses T2, WT hPTH-1 receptor (Homo sapiens, UniProt Q03431).
T2 construct: encoding the intact hPTH-1 receptor (HK-WT); expressed in transfected cells; host or cells: COS-7, transient, pcDNA-1 plasmid
T2 sequence (Q03431 27-593): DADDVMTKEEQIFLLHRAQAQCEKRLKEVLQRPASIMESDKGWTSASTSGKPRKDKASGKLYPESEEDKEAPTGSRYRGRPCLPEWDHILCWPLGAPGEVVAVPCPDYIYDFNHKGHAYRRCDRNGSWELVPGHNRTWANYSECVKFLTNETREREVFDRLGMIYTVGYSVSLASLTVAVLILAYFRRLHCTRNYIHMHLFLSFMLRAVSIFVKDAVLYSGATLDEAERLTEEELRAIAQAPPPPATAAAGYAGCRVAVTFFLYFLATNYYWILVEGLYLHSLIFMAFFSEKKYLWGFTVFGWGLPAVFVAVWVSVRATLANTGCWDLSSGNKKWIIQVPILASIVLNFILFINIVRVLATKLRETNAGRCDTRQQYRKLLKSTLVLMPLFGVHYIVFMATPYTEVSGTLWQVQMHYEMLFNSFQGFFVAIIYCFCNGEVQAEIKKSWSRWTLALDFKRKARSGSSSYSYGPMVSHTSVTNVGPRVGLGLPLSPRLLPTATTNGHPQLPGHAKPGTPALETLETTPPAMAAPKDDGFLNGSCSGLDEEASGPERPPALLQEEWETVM
The experiment in a line: cAMP stimulation in COS-7 cells transiently transfected with WT hPTH-1 receptor. In kind it is cell-based. As to the method:
COS-7 cells were transfected in 24-well plates when the cells were 85 to 95% of confluency using 200 ng of plasmid DNA that was purified by cesium chloride/ethidium bromide gradient centrifugation for each well. Assays were conducted 72 to 96 hours after transfection.
as §1
All calculations were performed using Microsoft Excel. Nonlinear regression analysis of cAMP stimulation data was performed using parameters, defined as the Minimum, Maximum, Emax, midpoint (EC50), and slope of the response curve. The predicted response (yp) for a given dose (x) of peptide was calculated using the following equation: yp=Min+[(Max−Min)/(1+(EC50/x)^slope)]. […] The statistical significance between two data sets was determined using a one-tailed Student's t-test, assuming unequal variances for the two sets.

Where [1] appears, read: COS-7 cells, WT hPTH-1 receptor.
The mark [2] stands for this setting: LLC-PK1 cells expressing PTH-2 receptor, cAMP.

T1 sequence (P49190 25-550): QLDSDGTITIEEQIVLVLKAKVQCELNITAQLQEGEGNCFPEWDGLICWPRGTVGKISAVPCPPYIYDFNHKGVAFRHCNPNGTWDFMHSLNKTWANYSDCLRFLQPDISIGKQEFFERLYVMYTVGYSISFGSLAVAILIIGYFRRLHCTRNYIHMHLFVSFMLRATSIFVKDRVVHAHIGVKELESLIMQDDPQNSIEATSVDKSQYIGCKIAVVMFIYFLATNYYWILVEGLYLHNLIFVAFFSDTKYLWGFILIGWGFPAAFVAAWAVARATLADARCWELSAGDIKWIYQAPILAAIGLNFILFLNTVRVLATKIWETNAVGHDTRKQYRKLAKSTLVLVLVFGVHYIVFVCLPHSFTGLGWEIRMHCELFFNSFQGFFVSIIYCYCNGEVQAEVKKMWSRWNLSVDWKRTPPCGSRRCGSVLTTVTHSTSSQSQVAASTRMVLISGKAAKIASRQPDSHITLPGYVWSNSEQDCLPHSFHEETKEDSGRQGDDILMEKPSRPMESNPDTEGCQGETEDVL

Turning to `CCCC[C@H](NC(=O)[C@H](CCCNC(=N)N)NC(=O)[C@H](CCC(=O)O)NC(=O)[C@@H](NC(=O)[C@H](CO)NC(=O)[C@H](C)NC(=O)[C@H](CC(C)C)NC(=O)[C@H](Cc1c[nH]cn1)NC(=O)[C@H](CCCCN)NC(=O)CNC(=O)[C@H](CC(C)C)NC(=O)[C@H](CC(N)=O)NC(=O)[C@H](Cc1c[nH]cn1)NC(=O)[C@H](CCCC)NC(=O)[C@H](CC(C)C)NC(=O)[C@H](CCC(N)=O)NC(=O)[C@@H](NC(=O)[C@H](CCC(=O)O)NC(=O)[C@H](CO)NC(=O)[C@@H](NC(=O)[C@H](C)N)C(C)C)[C@@H](C)CC)C(C)C)C(=O)N[C@@H](CCC(N)=O)C(=O)N[C@@H](Cc1c[nH]c2ccccc12)C(=O)N[C@@H](CC(C)C)C(=O)N[C@@H](CCCNC(=N)N)C(=O)N[C@@H](CCCCN)C(=O)N[C@@H](CCCCN)C(=O)N[C@@H](CC(C)C)C(=O)N[C@@H](CCC(N)=O)C(=O)N[C@@H](CC(=O)O)C(=O)N[C@H](C(=O)N[C@@H](Cc1c[nH]cn1)C(=O)N[C@@H](CC(N)=O)C(=O)N[C@@H](Cc1ccc(O)cc1)C(N)=O)C(C)C` [[Nle8, 21, Y34]rPTH(1-34), [Nle^8,21,Tyr^34]-rPTH(1-34)NH2, reference compound], the figures for the Emax on hPTH-2 Receptor and at WT hPTH-1 receptor (setting [1]) were 744 ± 48 picomole/well and 226 ± 31 picomole/well, respectively.
Consider “AVAEIQLMHAR-NH2 [compound 6, AlaValAlaGluIleGlnLeuMetHisAlaArg-amide]”, for which the “EC50 Log M” value at hPTH-2 Receptor (cAMP) is recorded as “weakly”. At WT hPTH-1 receptor (setting [1]), this compound displayed an Emax of 238 ± 20 picomole/well. For the same compound, the EC50 at WT hPTH-1 receptor (COS-7 cells, WT hPTH-1 receptor, cAMP, read-out: EC50) came to 29.1 ± 15.3 µM.
“AVAEIQLMHARAKH-NH2 [Peptide #1, AlaValAlaGluIleGlnLeuMetHisAlaArgAlaLysHis-amide]” returned an Emax at hPTH-2 Receptor of 292 ± 100 picomole/well. Moreover, at hPTH-2 Receptor (setting [2]), the “potency relative to PTH(1-34)” value is “four to five orders of magnitude weaker” and the “stimulation of the PTH-2 receptor (in words)” value is listed as “active”. Further, the Emax on WT hPTH-1 receptor (setting [1]) is listed as 243 ± 63 picomole/well. The EC50 at WT hPTH-1 receptor (COS-7 cells, WT hPTH-1 receptor, cAMP, read-out: EC50 Log M (converted)) was 1 µM.
As for “AVAEIQLMHARAKHLNSMERVEWLRKKLQDVHNY-NH2 [Peptide #7]”, the figures for the Emax on hPTH-2 Receptor and on WT hPTH-1 receptor (setting [1]) were 677 picomole/well and 222 ± 31 picomole/well, respectively. The compound further gave an EC50 at WT hPTH-1 receptor of 313 ± 121 µM.
In the case of “AVSEIQLMHNLGKH-NH2 [native rPTH(1-14), AVSEIQLMHNLGKH, reference compound]”, the “EC50 Log M” value on hPTH-2 Receptor (cAMP) is “inactive”. The “stimulation of the PTH-2 receptor (in words)” value on hPTH-2 Receptor (setting [2]) is “did not stimulate”. This compound came in with an Emax at WT hPTH-1 receptor (setting [1]) of 221 ± 22 picomole/well.
